Results from publication PMC6021681, “Characterization of the Anti-Hepatitis C Virus Activity of New Nonpeptidic Small-Molecule Cyclophilin Inhibitors with the Potential for Broad Anti-Flaviviridae Activity” (Antimicrobial Agents and Chemotherapy, 2018).
Like-named read-outs stand apart in the source and are kept apart here.

Tests used:
[1] = test system: ZIKV strain MR766; test: ZIKV replication in Huh7 cells, RT-qPCR; assay type: cell-based, Zika virus
[2] = biological target: CypA-NS5A interaction (Homo sapiens, UniProt P62937); assay type: binding
[3] = test system: genotype 2a HCV-SGR; test: genotype 2a HCV-SGR, transient, luciferase; conditions: read-out: Mean EC50 ± SD, HCV-SGR Genotype 2a
[4] = test system: genotype 1b HCV-SGR E442G; test: microbe, parasite or virus in culture; assay type: cell-based, hepatitis C virus; conditions: for EC50: 96 h, read-out: Mean EC50 ± SD, E442G
Protocol: (§1) Candidate resistance-associated substitutions (RASs) were introduced into a wild-type genotype 1b HCV-SGR containing the luciferase reporter gene by means of site-directed mutagenesis (QuikChange II XL site-directed mutagenesis kit; Agilent Technologies, Santa Clara, CA, USA). […] The replication capacity of the RAS-containing HCV-SGR was assessed by comparing luciferase activities at 4 h and 96 h posttransfection and expressed as a percentage of the wild-type replication capacity.

[5] = test system: genotype 1b HCV-SGR Y321H; test: microbe, parasite or virus in culture; assay type: cell-based, hepatitis C virus; conditions: for EC50: 96 h, read-out: Mean EC50 ± SD, Y321H
Protocol: as §1

[6] = test system: genotype 1b HCV-SGR K308I; test: microbe, parasite or virus in culture; assay type: cell-based, hepatitis C virus; conditions: for EC50: 96 h, read-out: Mean EC50 ± SD, K308I
Protocol: as §1

[7] = test system: genotype 1b HCV-SGR I133V; test: microbe, parasite or virus in culture; assay type: cell-based, hepatitis C virus; conditions: for EC50: 96 h, read-out: Mean EC50 ± SD, I133V
Protocol: as §1

[8] = test system: genotype 1b HCV-SGR L303P; test: microbe, parasite or virus in culture; assay type: cell-based, hepatitis C virus; conditions: for EC50: 96 h, read-out: Mean EC50 ± SD, L303P
Protocol: as §1

[9] = test system: genotype 1b HCV-SGR D320E; test: microbe, parasite or virus in culture; assay type: cell-based, hepatitis C virus; conditions: for EC50: 96 h, read-out: Mean EC50 ± SD, D320E
Protocol: as §1

[10] = test system: genotype 1b HCV-SGR R304W; test: microbe, parasite or virus in culture; assay type: cell-based, hepatitis C virus; conditions: for EC50: 96 h, read-out: Mean EC50 ± SD, R304W
Protocol: as §1

[11] = test system: genotype 3a HCV-SGR; test: genotype 3a HCV-SGR, stable Huh7.5 cells, luciferase; assay type: cell-based, hepatitis C virus; conditions: 48 h, read-out: Mean EC50 ± SD, HCV-SGR Genotype 3a
[12] = test system: genotype 1b HCV-SGR; test: microbe, parasite or virus in culture; assay type: cell-based, hepatitis C virus
Protocol: Candidate resistance-associated substitutions (RASs) were introduced into a wild-type genotype 1b HCV-SGR containing the luciferase reporter gene by means of site-directed mutagenesis (QuikChange II XL site-directed mutagenesis kit; Agilent Technologies, Santa Clara, CA, USA). Ninety-six hours after RNA transfection, the susceptibility of the RAS-containing HCV-SGR to compound 31 was determined by measurement of luciferase activity and comparison to wild-type HCV-SGR susceptibility. The replication capacity of the RAS-containing HCV-SGR was assessed by comparing luciferase activities at 4 h and 96 h posttransfection and expressed as a percentage of the wild-type replication capacity.

[13] = test system: genotype 5a HCV-SGR; test: genotype 5a HCV-SGR, stable Huh7.5 cells, luciferase; assay type: cell-based, hepatitis C virus; conditions: 48 h, read-out: Mean EC50 ± SD, HCV-SGR Genotype 5a
[14] = test system: genotype 1a HCV-SGR; test: microbe, parasite or virus in culture; assay type: cell-based, hepatitis C virus
[15] = biological target: T1, CypA (Homo sapiens, UniProt P62937); test: TR-FRET competitive binding assay against labeled CsA
T1 construct: purchased Selcia, Ongar, UK

[16] = test system: genotype 1b HCV-SGR(L31V/Y93H); test: microbe, parasite or virus in culture; assay type: cell-based, hepatitis C virus
[17] = test system: chimeric genotype 2a/4a HCV-SGR; test: chimeric genotype 2a/4a HCV-SGR, transient, luciferase; conditions: read-out: Mean EC50 ± SD, HCV-SGR Genotype 2a/4a
[18] = test system: Infectious J6/JFH1 HCV genotype 2a/2a; test: infectious HCV model, luciferase; assay type: cell-based, hepatitis C virus; conditions: read-out: Mean EC50 ± SD, Infectious J6/JFH1 HCV genotype 2a/2a
[19] = test system: Huh7.5 cells; test: cytotoxicity MTT assay; assay type: cell-based, Human; conditions: at its effective concentration, 3 days
[20] = test system: WNV; test: WNV replication; assay type: cell-based, West Nile virus; conditions: 50 μM the highest concentration tested, data not shown
[21] = test system: YFV strain Dakar HD 1279; assay type: cell-based, yellow fever virus; conditions: Huh7 cells, RT-qPCR at 48 h postinfection; read-out: EC50, YFV replication
[22] = test system: DENV-4 strain Dominica 814669; test: DENV replication in Huh7 cells, RT-qPCR; assay type: cell-based, dengue virus; conditions: RT-qPCR at 48 h postinfection
[23] = biological target: CypA-NS5A-D320E interaction (Homo sapiens, UniProt P62937); assay type: binding; conditions: NS5A-D320E-Rluc, CypA-6His on Ni-NTA beads
[24] = test system: Huh7 cells; conditions: read-out: 50% cytotoxic concentration (CC50); flavivirus experiments
[25] = test system: JEV; test: JEV replication; assay type: cell-based, Japanese encephalitis virus; conditions: data not shown
[26] = biological target: CypA PPIase activity (Homo sapiens, UniProt P62937); test: CypA PPIase enzyme assay, chymotrypsin coupled; conditions: read-out: PPIase inhibition IC50, 20°C
[27] = test system: HCV genotype 1b bicistronic replicon (I389-Neo/NS3-3'/5.1); test: genotype 1b HCV-SGR replicon model, stable Huh7.5 cells, RT-qPCR; assay type: cell-based, hepatitis C virus; conditions: 3 days
Protocol: of at least two independent measurements.
The cells were treated for
without G418. […] HCV‐SGR RNA
results were normalized to GAPDH.
replicates in cell culture.
antiviral activities. Nat Commun 7:12777.

[28] = test system: full-length infectious HCV genotype 3a (DBN-3acc); test: full-length DBN-3acc replication, RT-qPCR; assay type: cell-based, hepatitis C virus; conditions: at 10 μM, Huh7.5 cells, 120 hours
Text: Madison, Wisconsin, USA).
(Promega) and quantified by RT‐qPCR.
(1 mi n ). […] The percent inhibition of […]

Sequence of CypA PPIase activity (P62937 whole entry): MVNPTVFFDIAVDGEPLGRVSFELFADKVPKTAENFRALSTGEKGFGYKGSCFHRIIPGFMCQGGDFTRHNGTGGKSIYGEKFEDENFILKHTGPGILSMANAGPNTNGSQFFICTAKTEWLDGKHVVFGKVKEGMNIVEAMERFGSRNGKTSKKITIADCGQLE
T1 sequence (P62937 whole entry): as above
Sequence of CypA-NS5A interaction (P62937 whole entry): as above
Sequence of CypA-NS5A-D320E interaction (P62937 whole entry, stated change not applied): as the sequence (P62937 whole entry) above

Structure (SMILES): C/C=C/C[C@@H](C)[C@@H](O)[C@H]1C(=O)N[C@@H](CC)C(=O)N(C)[C@H](C)C(=O)N(CC)[C@@H](C(C)C)C(=O)N[C@@H](C(C)C)C(=O)N(C)[C@@H](CC(C)C)C(=O)N[C@@H](C)C(=O)N[C@H](C)C(=O)N(C)[C@@H](CC(C)C)C(=O)N(C)[C@@H](CC(C)C)C(=O)N(C)[C@@H](C(C)C)C(=O)N1C [ALV, Alisporivir, reference compound]
- inhibition of ZIKV replication ([1]; data not shown): did not inhibit
- disruption of the CypA-NS5A interaction [2]: disrupted
- EC50 ([3]; Hepatitis C virus, GETYPE2A, Huh7.5, 48 h): 20 ± 10 nM
- EC50 ([4]; Hepatitis C virus): 30 ± 4 nM
- EC50 ([5]; Hepatitis C virus): 60 ± 20 nM
- EC50 ([6]; Hepatitis C virus): 40 ± 4 nM
- EC50 ([7]; Hepatitis C virus): 20 ± 1 nM
- EC50 ([8]; Hepatitis C virus): 40 ± 10 nM
- EC50 ([9]; Hepatitis C virus): 0.12 ± 0.05 µM
- EC50 ([10]; Hepatitis C virus): 30 ± 4 nM
- EC50 ([11]; Hepatitis C virus): 0.02 ± 0.01 µM
- EC50 ([12]; Hepatitis C virus, transient, Huh7.5 cells, 96 h posttransfection, luciferase, read-out: Mean EC50 ± SD, HCV-SGR Genotype 1b): 30 ± 10 nM
- EC50 ([12]; Hepatitis C virus, wild-type genotype 1b HCV-SGR, read-out: Mean EC50 ± SD, WT): 30 ± 10 nM
- EC50 ([13]; Hepatitis C virus): 10 ± 10 nM
- EC50 ([14]; Hepatitis C virus, stable Huh7.5 cells, 48 h, luciferase, read-out: Mean EC50 ± SD, HCV-SGR Genotype 1a): 40 ± 30 nM
- Kd ([15]; purified CypA): < 5 nM
- EC50 ([16]; Hepatitis C virus, 84 h, read-out: Mean EC50 ± SD, L31V/Y93H): 10 ± 1 nM
- EC50 ([17]; Hepatitis C virus, GETYPE2A, Huh7.5, 72 h): 10 ± 2 nM
- EC50 ([18]; Hepatitis C virus, Huh7.5, 72 h): 30 ± 2 nM

Structure (SMILES): CSc1ccccc1C1CCCN1C(=O)C(NC(=O)NCc1ccc(N)cc1)c1ccccc1 (centres unmarked) [Compound C31]
- EC50 ([1]; Huh7 cells, RT-qPCR at 48 h postinfection): 48 ± 5.6 µM
- cell viability [19]: did not affect
- disruption of the CypA-NS5A interaction ([2]; WT-NS5A-Rluc, CypA-6His on Ni-NTA beads): disrupted
- EC50 [20]: > 50 µM
- EC50 [21]: 27.2 ± 4.7 µM
- EC50 ([3]; transient, Huh7.5 cells, 48 h posttransfection, luciferase): 2300 ± 1200 nM
- EC50 [22]: 7.3 ± 3.5 µM
- disruption of the NS5A-D320E interaction with CypA [23]: fully sensitive
- Fold change, E442G ([4]; EC50 relative to wild type): 1.0
- EC50 ([4]; genotype 1b HCV-SGR): 2990 ± 700 nM
- Fold change, Y321H ([5]; EC50 relative to wild type): 1.8
- EC50 ([5]; genotype 1b HCV-SGR): 5410 ± 400 nM
- Fold change, K308I ([6]; EC50 relative to wild type): 0.9
- EC50 ([6]; genotype 1b HCV-SGR): 2590 ± 200 nM
- Fold change, I133V ([7]; EC50 relative to wild type): 0.9
- EC50 ([7]; genotype 1b HCV-SGR): 2750 ± 200 nM
- Fold change, L303P ([8]; EC50 relative to wild type): 1.0
- EC50 ([8]; genotype 1b HCV-SGR): 3050 ± 400 nM
- Fold change, D320E ([9]; EC50 relative to wild type): 3.0
- EC50 ([9]; genotype 1b HCV-SGR): 8.73 ± 1.1 µM
- Fold change, R304W ([10]; EC50 relative to wild type): 0.8
- EC50 ([10]; genotype 1b HCV-SGR): 2470 ± 200 nM
- EC50 [11]: 7.76 ± 1.57 µM
- Fold change, WT ([12]; EC50 relative to wild type): 1.0
- EC50 ([12]; transient, Huh7.5 cells, 96 h posttransfection, luciferase, read-out: Mean EC50 ± SD, HCV-SGR Genotype 1b): 2950 ± 600 nM
- EC50 ([12]; wild-type genotype 1b HCV-SGR, read-out: Mean EC50 ± SD, WT): 2950 ± 600 nM
- EC50 [13]: 1200 ± 830 nM
- EC50 ([14]; stable Huh7.5 cells, 48 h, luciferase, read-out: Mean EC50 ± SD, HCV-SGR Genotype 1a): 3800 ± 1900 nM
- CC50 [24]: ≥ 100 µM
- Kd ([15]; read-out: Kd, displacement of labeled CsA from CypA, purified CypA): 105 nM
- effect against JEV replication [25]: no effect
- IC50 [26]: 100 ± 10 nM
- EC50 [27]: 0.4 ± 0.01 µM
- EC50 ([17]; transient, Huh7.5 cells, 72 h posttransfection, luciferase): 1400 ± 1100 nM
- maximal HCV RNA reduction, DBN-3acc RNA replication [28]: 244 fold
- EC50 ([18]; Huh7.5 cells, 72 h, luciferase): 2800 ± 400 nM

Structure (SMILES): Nc1ccc(CNC(=O)NCC(=O)N2CCCC2c2cccc3ccccc23)cc1 (centres unmarked) [Compound C32]
- IC50 [26]: 1490 ± 450 nM
- EC50 [27]: 9.01 ± 2.04 µM

Structure (SMILES): CSc1ccccc1C1CCCN1C(=O)C(C)NC(=O)NCc1ccc(N)cc1 (centres unmarked) [Compound C33, 1‐[(4‐aminophenyl)methyl]‐3‐(1‐{2‐[2‐(methylsylfanyl)phenyl]pyrrolidin‐1‐yl}‐1‐oxopropan‐2‐yl)urea]
- IC50 [26]: 3080 ± 1170 nM
- EC50 [27]: 12.9 ± 1.2 µM

Structure (SMILES): CSCCC(NC(=O)NCc1ccc(N)cc1)C(=O)N1CCCC1c1ccccc1SC (centres unmarked) [Compound C34]
- EC50 [27]: 1.63 ± 0.38 µM

Structure (SMILES): Nc1ccc(CNC(=O)NCC(=O)N2CCCC2c2ccccc2Br)cc1 (centres unmarked) [Compound C35]
- EC50 [27]: 4.51 ± 0.52 µM

Structure (SMILES): COc1ccccc1C1CCCN1C(=O)CNC(=O)NCc1ccc(N)cc1 (centres unmarked) [Compound C36]
- IC50 [26]: 5030 ± 1810 nM
- EC50 [27]: 19.7 ± 2.9 µM

Structure (SMILES): COC(=O)N[C@H](C(=O)N1CC2(CC2)C[C@H]1c1nc(-c2ccc3c(c2)C(F)(F)c2cc(-c4ccc5[nH]c([C@@H]6[C@H]7CC[C@H](C7)N6C(=O)[C@@H](NC(=O)OC)C(C)C)nc5c4)ccc2-3)c[nH]1)C(C)C [LDV, ledipasvir]
- EC50 ([14]; Hepatitis C virus, Huh7.5, read-out: EC50 used in the combination study, genotype 1a HCV-SGR): 0.01 nM
- increase in the LDV EC50, L31V and Y93H substitutions ([16]; genotype 1b HCV-SGR, versus wild type, data not shown): 714 fold
